In brackets after ≈: the same amount, converted by molar mass. Activity calls are given as the source filed them. The rule behind the calls is not given here.
Columns and labels:
Homo sapiens [1] = species on record: Homo sapiens; assay: Induction of resting HMNC proliferation assessed as [3H]thymidine uptake at 10 ug/mL after 3 days by lymphoproliferation test relative to control; type: functional
Homo sapiens [2] = species on record: Homo sapiens; assay: Induction of phytohemagglutininin-activated HMNC proliferation assessed as [3H]thymidine uptake at 10 ug/mL after 3 days by lymphoproliferation test relative to control; type: functional
[3] = Induction of phytohemagglutininin-activated HMNC proliferation assessed as [3H]thymidine uptake after 3 days by lymphoproliferation test; type: functional, Homo sapiens
[4] = Induction of resting HMNC proliferation assessed as [3H]thymidine uptake after 3 days by lymphoproliferation test; type: functional, Homo sapiens
Homo sapiens [5] = species on record: Homo sapiens; assay: Immunomodulatory activity in resting HMNC assessed as IFN-gamma production at 10 ug/mL after 3 days by EIA realtive to control; type: functional
Homo sapiens [6] = species on record: Homo sapiens; assay: Immunomodulatory activity in phytochemagglutininin-stimulatedHMNC assessed as IFN-gamma production at 10 ug/mL after 3 days by EIA realtive to control; type: functional
[7] = (§1) Immunomodulatory activity in phytochemagglutininin-stimulatedHMNC assessed as IFN-gamma production after 3 days by EIA; type: functional, Homo sapiens
Homo sapiens [8] = species on record: Homo sapiens; assay: as §1; type: functional
[9] = (§2) Immunomodulatory activity in resting HMNC assessed as IFN-gamma production after 3 days by EIA; type: functional, Homo sapiens
Homo sapiens [10] = species on record: Homo sapiens; assay: as §2; type: functional

| EC50 [7] | EC50 [9] | SMILES | Activity (Homo sapiens [1]) | Activity (Homo sapiens [2]) | EC50 [3] | EC50 [4] | Activity (Homo sapiens [5]) | Activity (Homo sapiens [6]) | Activity (Homo sapiens [8]) | Activity (Homo sapiens [10]) |
| --- | --- | --- | --- | --- | --- | --- | --- | --- | --- | --- |
|  |  | O=C(/C=C/c1ccc(O)c(O)c1)O[C@@H]1C[C@](O)(C(=O)O)C[C@@H](OC(=O)/C=C/c2ccc(O)c(O)c2)[C@H]1O | inactive | inactive |  |  |  |  |  |  |
| 2.8 µg/mL (≈ 7.9 µM) | 3.9 µg/mL (≈ 11 µM) | O=C(/C=C/c1ccc(O)c(O)c1)O[C@@H]1C[C@](O)(C(=O)O)C[C@@H](O)[C@H]1O [CHLOROGENIC ACID] | 910 cpm | 97.9% | 4.9 µg/mL (≈ 13.8 µM) | 1.54 µg/mL (≈ 4.35 µM) | 38.5 pg/mL | Active | Dose-dependent effect | Dose-dependent effect |
|  |  | O=C(/C=C/c1ccc(O)c(O)c1)O[C@@H]1[C@@H](OC(=O)/C=C/c2ccc(O)c(O)c2)C[C@@](O)(C(=O)O)C[C@@H]1O | inactive | inactive |  |  |  |  |  |  |
| 5 µg/mL (≈ 9.68 µM) | 1.25 µg/mL (≈ 2.42 µM) | O=C(/C=C/c1ccc(O)c(O)c1)O[C@H]1[C@@H](OC(=O)/C=C/c2ccc(O)c(O)c2)C[C@](O)(C(=O)O)C[C@@H]1O | 726 cpm | 78.4% | 8.1 µg/mL (≈ 15.7 µM) | 4.4 µg/mL (≈ 8.52 µM) | 30.5 pg/mL | Active | Dose-dependent effect | Dose-dependent effect |
|  |  | C[C@@H]1O[C@@H](OC[C@H]2O[C@@H](Oc3c(-c4ccc(O)c(O)c4)oc4cc(O)cc(O)c4c3=O)[C@H](O)[C@@H](O)[C@@H]2O)[C@H](O)[C@H](O)[C@H]1O | inactive | inactive |  |  |  |  |  |  |
|  |  | CCOC(=O)[C@]1(O)C[C@H](OC(=O)/C=C/c2ccc(O)c(O)c2)[C@@H](OC(=O)/C=C/c2ccc(O)c(O)c2)[C@@H](O)C1 | inactive | inactive |  |  |  |  |  |  |
|  |  | COC(=O)[C@]1(O)C[C@H](OC(=O)/C=C/c2ccc(O)c(O)c2)[C@@H](O)[C@@H](OC(=O)/C=C/c2ccc(O)c(O)c2)C1 | inactive | inactive |  |  |  |  |  |  |
|  |  | O=C(O)/C=C/c1ccc(O)c(O)c1 | inactive | inactive |  |  | inactive | inactive |  |  |

From ChEMBL document CHEMBL1157280, “Immunomodulatory principles of Dichrocephala bicolor” (J Nat Prod, 1999)
